Target: T1, ctdWDR91 (Homo sapiens, UniProt A4D1P6)
T1 sequence (A4D1P6 392-747): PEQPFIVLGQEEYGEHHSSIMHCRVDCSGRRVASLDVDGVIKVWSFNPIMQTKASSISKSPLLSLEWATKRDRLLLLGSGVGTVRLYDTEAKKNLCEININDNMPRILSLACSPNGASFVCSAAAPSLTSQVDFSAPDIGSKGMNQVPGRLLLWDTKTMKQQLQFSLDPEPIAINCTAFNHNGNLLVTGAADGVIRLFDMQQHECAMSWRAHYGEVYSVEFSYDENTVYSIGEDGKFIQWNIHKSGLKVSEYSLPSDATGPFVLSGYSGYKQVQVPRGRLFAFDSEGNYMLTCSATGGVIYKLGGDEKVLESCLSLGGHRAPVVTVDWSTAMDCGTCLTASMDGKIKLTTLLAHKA
Test: biochemical

| Compound | Kd [µM] |
| --- | --- |
| O=C(Nc1cccc2cnccc12)c1cccc([N+](=O)[O-])c1 [MRGG044720b] | > 45 |
| Cc1nn2cc(C(=O)N(C)CCc3cccc(C#N)c3)nc2s1 [MRGG045278a] | > 45 |
| CC1CN(C2CC2)CC1NC(=O)c1cc2cc(Br)ccc2o1 (stereo not shown) [MRGG044827a] | > 45 |
| N#Cc1cc(CNc2ccccc2CN2CCNC2=O)ccc1F [MRGG044804a] | > 45 |
| O=C(NC(CCO)c1ccc(Cl)cc1)c1ccc(CN2CCCC2=O)cc1 (stereo not shown) [MRGG045272a] | > 45 |
| CC(NC(=O)c1ccc2c(=O)n3c(nc2c1)CCC3)c1ccc(Cl)cc1 (stereo not shown) [MRGG044821a] | > 45 |
| CNC(=O)c1ccc(NC2CC3CCC(C2)N3C)nc1 (stereo not shown) [MRGG045318a] | > 45 |
| CC(NC(=O)CN(C)C1CCN(C2CC2)C1)c1ccc(Br)cc1 (stereo not shown) [MRGG045280a] | > 45 |
| CC1CN(C2CC2)CC1NCc1ccccc1-n1ccnc1 (stereo not shown) [MRGG044802a] | > 45 |
| CNC(=O)c1cccnc1N1C[C@@H]2CN(C)C[C@]2(C)C1 [MRGG045301a] | > 45 |
| c1nc(NC2CCN(C3CC3)C2)c2ccsc2n1 (stereo not shown) [MRGG044830a] | > 45 |
| COCC1CCN(c2ccc(C(=O)N3C[C@@H]4C[C@H]3CN4C3CC3)cc2)C1 (stereo partly shown) [MRGG045264a] | > 45 |
| Cc1c(C#N)c2ccccc2n1CC(=O)N1CCc2ccccc2C1 [MRGG044779a] | > 45 |
| CC(NC(=O)C1Cc2ccccc2O1)c1cccc(N2CCCC2)c1 (stereo not shown) [MRGG044823a] | > 45 |
| Cc1cc(NCC2CCN(C3CC3)C2)nc(-c2cccc([N+](=O)[O-])c2)n1 (stereo not shown) [MRGG044829a] | > 45 |
| O=C(NC1CCc2ccccc21)c1ccc(Cl)cc1 (stereo not shown) [MRGG044788a] | > 45 |
| CC(NC(=O)c1ccc(CNC(N)=O)cc1)c1ccc(Cl)c(Cl)c1 (stereo not shown) [MRGG044836a] | > 45 |
| CN(C)C1(CNC(=O)c2ccc3oc(=O)[nH]c3c2)Cc2ccccc2C1 [MRGG044797a] | > 45 |
| O=C(NCC1CCN(C2CC2)C1)c1ccc(Cl)cc1 (stereo not shown) [MRGG044816a] | > 45 |
| O=C(CCN1C[C@@H]2C[C@H]1CN2C1CC1)NCc1ccccc1Cl [MRGG045281a] | > 45 |

| Compound | Kd [µM] |
| --- | --- |
| CCC(NC(=O)c1ccc(S(=O)(=O)NC2CC2)cc1)c1ccc(Br)cc1 (stereo not shown) [MRGG044824a] | > 45 |
| Fc1ccc(N2CCC(CNc3ncnc4ccncc34)C2)cc1F (stereo not shown) [MRGG044795a] | > 45 |
| O=C(Nc1ccc2oc(=O)ccc2c1)c1cc(F)c(F)cc1[N+](=O)[O-] [MRGG044828a] | > 45 |
| CN(Cc1ccc(Cl)c(Cl)c1)C(=O)COC(=O)C=Cc1ccc(O)c(O)c1 [MRGG045262a] | > 45 |
| CC1CCN(c2ccc(C(=O)N3c4ccccc4CC3CO)cc2)C1 (stereo not shown) [MRGG044805a] | > 45 |
| O=C(NC1CC2(CCCC2)Oc2ccccc21)c1cnc2ccccn2c1=O (stereo not shown) [MRGG044783a] | > 45 |
| c1ccc2oc(-c3n[nH]cc3CNCC3CCN(C4CC4)C3)cc2c1 (stereo not shown) [MRGG044801a] | > 45 |
| CCN1CCN(c2ccc(C(=O)N(C)c3cccc(C)c3)cc2F)CC1 [MRGG045277a] | > 45 |
| COc1ccc(C(NC(=O)C2CC(C)=NO2)c2ccc(Cl)cc2)cc1 (stereo not shown) [MRGG045275a] | > 45 |
| Cn1ccc(C(=O)Nc2ccc(N3CCCCC3)c3ccncc23)cc1=O [MRGG044838a] | > 45 |
| CN1C[C@@H]2CN(C(=O)c3cc(Br)c([N+](=O)[O-])[nH]3)C[C@@H]2C1 [MRGG045266a] | > 45 |
| Cc1c(C(=O)NCc2n[nH]c(N)n2)n(C)c2ccc(F)cc12 [MRGG044784a] | > 45 |
| CN(C)c1nc2ccc(NCc3cc4c(cc3O)OCO4)cc2o1 [MRGG044799a] | > 45 |
| CN1CCOC(C(NC(=O)c2cncc3cnccc23)c2ccc(Cl)cc2)C1 (stereo not shown) [MRGG045276a] | > 45 |
| Cc1cc(C#N)nc(NC2CC(C)N(C3CC3)C2)n1 (stereo not shown) [MRGG044798a] | > 45 |
| O=C(NC1(c2ccc(F)cc2)COC1)c1ccc2cnccc2c1 [MRGG045267a] | > 45 |
| Cc1ccc(N)cc1C(=O)N1C2C=C(c3ccccc3)CC1CC2 (stereo not shown) [MRGG044818aAD] | > 45 |
| CCC(NC(=O)CN1CCn2cncc2C1)c1ccc(Cl)cc1 (stereo not shown) [MRGG044822a] | > 45 |
| O=C(NCc1ccc2nonc2c1)c1cn2ccsc2n1 [MRGG044782a] | > 45 |
| CC1c2cccn2CCN1C(=O)c1cc(Br)cc(N2CCCC2)c1 (stereo not shown) [MRGG044826a] | > 45 |

| Compound | Kd [µM] |
| --- | --- |
| O=C(Cc1cn2ccsc2n1)NC1(c2ccc(Cl)cc2)CC1 [MRGG044790a] | > 45 |
| COC(=O)c1ccccc1NC(=O)c1ccc2nnsc2c1 [MRGG044841a] | > 45 |
| CC1CN(C2CC2)CC1NS(=O)(=O)c1cnn(-c2ccccc2)c1 (stereo not shown) [MRGG044803a] | > 45 |
| Cc1ccccc1N1CCC(CNC(=O)Cc2ccc(C(F)(F)F)cc2)C1 (stereo not shown) [MRGG044786a] | > 45 |
| O=[N+]([O-])c1ccc(N2CCC(CNc3ccccn3)C2)c2ccncc12 (stereo not shown) [MRGG044831a] | > 45 |
| Cc1[nH]c2ccccc2c1CC(=O)N(C)C1CCN(C2CC2)C1 (stereo not shown) [MRGG045290a] | > 45 |
| O=C(NC(CO)C(O)c1ccc(Cl)cc1)c1ccc2ccncc2c1 (stereo not shown) [MRGG045273a] | > 45 |
| CC(C)(C)OC(=O)N1CCC2(CC(N)c3ccccc3O2)C1 (stereo not shown) [MRGG044817a] | > 45 |
| CCOc1ccc2c(c1)C(NC(=O)c1cn3ccnc3s1)CCO2 (stereo not shown) [MRGG044834a] | > 45 |
| NC(=O)C1=NOC(CNC(=O)NCC2CCN(c3ccccc3)C2)C1 (stereo not shown) [MRGG044840a] | > 45 |
| CN(CCCc1ccccc1)C(=O)c1cn2ccnc2s1 [MRGG045270a] | > 45 |
| N#Cc1cccc(CN(C=O)C2CC3(CCCC3)Oc3ccccc32)c1 (stereo not shown) [MRGG045284a] | > 45 |
| Cc1cc(N2CCN(C(=O)c3cc(F)c(F)cc3[N+](=O)[O-])CC2)c(F)cc1[N+](=O)[O-] [MRGG044777a] | > 45 |
| Cc1nn(C)cc1C1=NOC(C(=O)N[C@H](C)c2ccc(Br)cc2)C1 (stereo partly shown) [MRGG045282a] | > 45 |
| N#Cc1cccc(CNC(=O)C2=NN(c3ccccc3)C(=O)CN2)c1 [MRGG044820a] | > 45 |
| CC(NC(=O)c1cccc(N2CCCC2)c1)(C(=O)O)c1ccccc1 (stereo not shown) [MRGG044796a] | > 45 |
| O=C(NC1CCN(c2cccc(Cl)c2)C1)c1cccc2c1OCO2 (stereo not shown) [MRGG044807a] | > 45 |
| O=C(c1snc(O)c1Cl)N1CCC2(CCc3ccccc3O2)C1 (stereo not shown) [MRGG044808a] | > 45 |

Now from value to compound:

| Kd [µM] | Compound |
| --- | --- |
| > 45 | Cc1nc2sccn2c1C(=O)N(C)Cc1cccc(F)c1 [UBGG013392b] |
| > 45 | CN(CCc1ccccc1)C(=O)Cc1ccc(O)c(O)c1 [UBGG028860b] |
| > 45 | CC1CC(NCC2CCCCCC2)CN1C1CC1 (stereo not shown) [MRGG045339a] |
| > 45 | CN1CC(N(C)C(=O)c2cc(-n3cccc3)ccn2)C1 [MRGG045326a] |
| > 45 | OC1CN(C2CC2)CC1N1CCc2ccccc2C1 (stereo not shown) [MRGG045310a] |
| > 45 | O=c1[nH]nc2n1CCN(Cc1ccccc1CN1CCn3c(n[nH]c3=O)C1)C2 [MRGG045331a] |
| > 45 | Cc1ccccc1CN1CC(=O)N(CC2CCN(c3ccc(F)cc3)C2)C1=O (stereo not shown) [MRGG045291a] |
| > 45 | CC(NC(=O)CCNC(=O)c1ccc(Br)cc1)c1ccc(Cl)cc1 (stereo not shown) [XSGG051538e] |
| > 45 | Cc1cc(O)c(O)cc1C(=O)NC1(c2cccc(C#N)c2)CCC1 [MRGG045322a] |
| > 45 | Cc1ccc(CN2CCC(CN(C)C3CC3)C2)s1 (stereo not shown) [MRGG045327a] |
| > 45 | O=C1NCC2(CC2)C(=O)N1CC1CCN(c2cccc(Br)c2)C1 (stereo not shown) [MRGG045328a] |
| > 45 | Cc1ccc(C(=O)NC2CC2)cc1NCc1cc(C#N)cc(C#N)c1 [MRGG045299a] |
| > 45 | CNC(=O)c1cc(C)nc(N2CCC3(CC2)CN(C)c2ccccc23)n1 [MRGG045287a] |
| > 45 | O=C1CC(c2nccs2)NC(=O)N1CC1CCN(c2ccc(Cl)cc2)C1 (stereo not shown) [MRGG045332a] |
| > 45 | N#Cc1cccc2c1CCN(C(=O)NCC1CCN(c3ccc(Cl)cc3)C1)C2 (stereo not shown) [MRGG045297a] |
| > 45 | CN1C(=O)CC(C(=O)NCc2ccc(O)c(O)c2)C1c1ccc(Cl)c(Cl)c1 (stereo not shown) [MRGG045316a] |
| > 45 | CC(C)(C)OC(=O)N1CCCC1C1CCN(C2CC2)C1 (stereo not shown) [MRGG045334a] |

| Kd [µM] | Compound |
| --- | --- |
| > 45 | CCCC(NC(=O)c1cc(O)c(O)cc1C)C(=O)N(C)C (stereo not shown) [MRGG045321a] |
| > 45 | c1ccc(-n2ncc3c(NCC4CCN(C5CC5)C4)ncnc32)cc1 (stereo not shown) [MRGG045311a] |
| > 45 | COc1ccc(CC(=O)N(C)Cc2cccc(N3CCCC3)c2)cc1[N+](=O)[O-] [MRGG045329a] |
| > 45 | c1ccc(CN2CCC3(CCN(C4CC4)C3)C2)cc1 (stereo not shown) [MRGG045337a] |
| > 45 | O=C(NCc1ccc(N2CCCC2)cc1)c1ccc(F)cc1 [XSGG119722b] |
| > 45 | CN(C(=O)c1c(C2CC2)nc2sccn12)C1CCN(C2CC2)C1 (stereo not shown) [MRGG045293a] |
| > 45 | CC1CC(NC(=O)c2c[nH]c3cccc(Cl)c23)CN1C1CC1 (stereo not shown) [MRGG045323a] |
| > 45 | C[C@H](NC1CCN(C2CC2)C1)c1cccc2cnccc12 (stereo partly shown) [MRGG045313a] |
| > 45 | O=C(NC(CCO)c1ccc(Cl)c(Cl)c1)c1ccc2c(c1)NC(=O)C1CCCN21 (stereo not shown) [MRGG045335a] |
| > 45 | Cc1cc(N2CCC(COC(=O)C3COc4ccccc43)C2)ccc1F (stereo not shown) [MRGG045298a] |
| > 45 | CC1(C)CN(C(=O)c2snc(O)c2Cl)c2ccc(Cl)cc21 [MRGG045317a] |
| > 45 | CN(C)C(=O)CC1CCN(C(=O)c2cc3cc(O)c(O)cc3s2)CC1 [MRGG045286a] |
| > 45 | CC(C)(C)OC(=O)NCc1ccc(C(=O)NC2CCN(c3ccc(Cl)cc3)C2)cc1 (stereo not shown) [MRGG045288a] |
| > 45 | CN1CCC(O)(CNC(=O)c2cnc3cc[nH]c3c2)C1 (stereo not shown) [MRGG045295a] |
| > 45 | N#Cc1ccc2c(c1)CCCCC2NCC1CCN(C2CC2)C1 (stereo not shown) [MRGG045300a] |
| > 45 | NC(=O)NC(CC(=O)Nc1ccc(N2CCCC2)cc1)c1ccc(Cl)cc1 (stereo not shown) [XSGG048242e] |

— paper doi:10.1101/2023.08.21.552681v1 (biorxiv, 2023)
